# Data as given in patent US11992479B2, “R-fadrozole for use in the treatment of aldostonerism” (priority 2018, dated 2024).
# Where two headings read alike, the source gives them in different places.
# Settings: for AUC0-tau: geometric mean ± geometric CV %
# Method: There were 6 subjects treated with each dose and twelve subjects treated with placebo (two placebo-treated-subjects included with each dose group).
# The blood samples were collected in K2EDTA, centrifuged and the plasma stored at −80° C. The samples were prepared for analysis by liquid/liquid extraction as follows. A 50 μL aliquot was extracted with 25 μL of methanol:water (50:50) and mixed; following which 250 μL of ammonia acetate 100 mM:ammonia hydroxide (95:5) was added and the solution was mixed. 750 μL of ethyl acetate was then added and mixed by aspirating and centrifuged at approximately 2500×g for 5 min. 400 μL of the organic layer was collected and evaporated under nitrogen at 40° C. The dried sample was reconstituted in 200 μL of ammonia acetate 10 mM:methanol:ammonia hydroxide (70:30:0.35) and centrifuged at 2000×g for 5 min. at room temperature. The extracted sample was then subjected to liquid chromatography using a Waters, Acquity, UPLC with a Gemini 3 μm NX-C18, 5×2 mm column. An injection volume of 8 μL was analyzed using Mobil phase A consisting of ammonium acetate 10 mM:ammonium hydroxide (100:0.5) and Mobile phase B consisting of methanol. The purified sample was then analyzed by mass spectrometry (LC-MS/MS). […] The effective calibration range was 0.2 to 200 ng/ml.
smiles,measurement,setting,value
"N#Cc1ccc([C@H]2CCCc3cncn32)cc1.O=P(O)(O)O [DP13, (R)-(+)-5-(p-cyanophenyl)-5,6,7,8-tetrahydroimidazolium[1,5-a]pyridine dihydrogen phosphate]",AUC0-t,"1 mg single oral dose, Day 1",45.8 ± 4.16 ng·h/mL
same,Cmax,"1 mg single oral dose, Day 1",4.68 ± 0.38 ng/mL
same,T1/2,"1 mg single oral dose, Day 1",8.19 ± 0.43 h
same,Tmax,"1 mg single oral dose, Day 1",2.00 ± 0.49 h
same,AUC0-t,"2 mg single oral dose, Day 1",133 ± 27.41 ng·h/mL
same,Cmax,"2 mg single oral dose, Day 1",12.0 ± 1.71 ng/mL
same,T1/2,"2 mg single oral dose, Day 1",11.3 ± 1.28 h
same,Tmax,"2 mg single oral dose, Day 1",2.08 ± 0.36 h
same,AUC0-t,"4 mg once daily oral, Day 1",139 ± 15.0 ng·h/mL
same,AUC0-∞,"4 mg once daily oral, Day 1",167 ± 22.0 ng·h/mL
same,Cmax,"4 mg once daily oral, Day 1",14.0 ± 1.6 ng/mL
same,T1/2,"4 mg once daily oral, Day 1",8.47 h
same,Tmax,"4 mg once daily oral, Day 1",2.08 ± 0.28 h
same,AUC0-t,"4 mg once daily oral, Day 8",154 ± 20.5 ng·h/mL
same,AUC0-∞,"4 mg once daily oral, Day 8",154 ± 20.5 ng·h/mL
same,Cmax,"4 mg once daily oral, Day 8",15.1 ± 1.1 ng/mL
same,T1/2,"4 mg once daily oral, Day 8",8.58 ± 1.1 h
same,Tmax,"4 mg once daily oral, Day 8",1.92 ± 0.35 h
same,AUC0-tau,"4 mg, Day 1",134 ± 29.2 ng·h/mL
same,AUC0-tau,"4 mg, Day 8",148 ± 33.0 ng·h/mL
same,AUC0-t,"8 mg once daily oral, Day 1",281 ± 24.2 ng·h/mL
same,AUC0-∞,"8 mg once daily oral, Day 1",335 ± 31.5 ng·h/mL
same,Cmax,"8 mg once daily oral, Day 1",29.4 ± 2.5 ng/mL
same,T1/2,"8 mg once daily oral, Day 1",8.82 ± 0.4 h
same,Tmax,"8 mg once daily oral, Day 1",1.81 ± 0.25 h
same,AUC0-t,"8 mg once daily oral, Day 8",338 ± 28.5 ng·h/mL
same,AUC0-∞,"8 mg once daily oral, Day 8",338 ± 28.5 ng·h/mL
same,Cmax,"8 mg once daily oral, Day 8",37.9 ± 3.9 ng/mL
same,T1/2,"8 mg once daily oral, Day 8",8.92 ± 0.5 h
same,Tmax,"8 mg once daily oral, Day 8",1.56 ± 0.26 h
same,AUC0-tau,"8 mg, Day 1",274 ± 24.9 ng·h/mL
same,AUC0-tau,"8 mg, Day 8",331 ± 22.5 ng·h/mL
same,AUC0-t,"16 mg once daily oral, Day 1",610 ± 34.7 ng·h/mL
same,AUC0-∞,"16 mg once daily oral, Day 1",740 ± 65.8 ng·h/mL
same,Cmax,"16 mg once daily oral, Day 1",66.8 ± 6.1 ng/mL
same,T1/2,"16 mg once daily oral, Day 1",9.04 ± 0.8 h
same,Tmax,"16 mg once daily oral, Day 1",1.88 ± 0.41 h
same,AUC0-t,"16 mg once daily oral, Day 8",725 ± 51.4 ng·h/mL
same,AUC0-∞,"16 mg once daily oral, Day 8",725 ± 51.4 ng·h/mL
same,Cmax,"16 mg once daily oral, Day 8",77.4 ± 6.9 ng/mL
same,T1/2,"16 mg once daily oral, Day 8",9.67 h
same,Tmax,"16 mg once daily oral, Day 8",1.88 ± 0.40 h
same,AUC0-tau,"16 mg, Day 1",603 ± 15.8 ng·h/mL
same,AUC0-tau,"16 mg, Day 8",714 ± 19.1 ng·h/mL
same,absorption (Tmax),all dose levels,absorbed rapidly at all dose levels
same,dose proportionality of Cmax and AUC0-∞,all dose levels,dose-proportional
